# Measured values taken from patent publication US12472159B2, “Compositions comprising amino acids for use in the prevention and treatment of chemotherapy side effects” (Professional Dietetics S.p.A., priority 2020, dated 2025).
# Columns and labels:
# HL-1 cardiomyocytes [1] = test: Mitochondrial biogenesis marker mRNA levels by quantitative RT-PCR in HL-1 cardiomyocytes; type: cell-based, mouse; conditions: HL-1 cells; for mRNA levels of mitochondrial biogenesis markers (PGC-1α, NRF1, Tfam, cyt c, COX IV): agent alone vs untreated cells, α5 1% w/v or BCAAem 48 h, 1 μM DOX 16 h; for prevention of DOX-induced decrease of mitochondrial biogenesis marker mRNA: supplement 48 h with 1 μM DOX 16 h, vs DOX-treated cells
# Procedure: Rules of the Declaration of Helsinki have been followed. HL-1 cardiomyocytes were obtained from W.C. Claycomb (Millipore Cat #SCC065) and plated in fibronectin/gelatin-coated flasks, grown to 70-80% confluence in Claycomb medium (Sigma-Aldrich) supplemented with 100 μM norepinephrine (from a 10 mM norepinephrine [Sigma-Aldrich] stock solution dissolved in 30 mM L-ascorbic acid [Sigma-Aldrich]), 2 mM L-glutamine, 100 U/ml penicillin, 100 μg/ml streptomycin and 10% Fetal Bovine Serum (FBS, Sigma-Aldrich). MCF-7 human breast cancer cell line (ATCC® HTB-22™) also available from P. Limonta (Pharmacological and Biomolecular Sciences, University of Milan, Milan, Italy) were cultured in pH 7.4 DMEM, containing streptomycin (100 U/ml), penicillin ([…]), and gentamicin ([…]), and supplemented with 10% FBS. Both cell types were treated with […] or α5 for 48 h and 1 μM DOX for 16 h (FIG. 1). […] The cycle number at which the various transcripts were detectable (threshold cycle, CT) was compared to that of TBP, referred to as ΔCT.
# HL-1 cardiomyocytes [2] = test: Citrate synthase activity in HL-1 cardiomyocytes; type: cell-based, mouse; conditions: HL-1 cells; agent alone vs untreated cells
# Procedure: (§1) Rules of the Declaration of Helsinki have been followed. HL-1 cardiomyocytes were obtained from W.C. Claycomb (Millipore Cat #SCC065) and plated in fibronectin/gelatin-coated flasks, grown to 70-80% confluence in Claycomb medium (Sigma-Aldrich) supplemented with 100 μM norepinephrine (from a 10 mM norepinephrine [Sigma-Aldrich] stock solution dissolved in 30 mM L-ascorbic acid [Sigma-Aldrich]), 2 mM L-glutamine, 100 U/ml penicillin, 100 μg/ml streptomycin and 10% Fetal Bovine Serum (FBS, Sigma-Aldrich). MCF-7 human breast cancer cell line (ATCC® HTB-22™) also available from P. Limonta (Pharmacological and Biomolecular Sciences, University of Milan, Milan, Italy) were cultured in pH 7.4 DMEM, containing streptomycin (100 U/ml), penicillin ([…]), and gentamicin ([…]), and supplemented with 10% FBS. Both cell types were treated with […] or α5 for 48 h and 1 μM DOX for 16 h (FIG. 1).
# HL-1 cardiomyocytes [3] = test: Mitochondrial oxidative stress in HL-1 cardiomyocytes (H2O2 release, aconitase, SOD, anti-ROS genes, 8-OHdG); type: cell-based, mouse; conditions: HL-1 cells; agent alone vs untreated cells
# Procedure: as §1
# To investigate the mitochondrial oxidative stress, mitochondria were isolated using the Qproteome Mitochondria isolation kit (Qiagen). Mitochondrial H2O2 release was measured in the presence of horseradish peroxidase (HRP), using the Amplex Red Hydrogen Peroxide/Peroxidase Assay kit (Molecular Probes). Fluorometric measures were made using a Fusion Universal Microplate Analyzer (Packard/PerkinElmer) with excitation filter at 550 nm and emission filter at 590 nm. H2O2 production, calculated from a standard curve, was expressed as nmol/min/mg protein as described Moreover, mitochondrial aconitase and SOD activity were measured as previously described. Briefly, the formation of NADPH was followed spectrophotometrically (340 nm) at 25° C. (for aconitase activity), while SOD activity was measured with the Superoxide Dismutase Assay Kit (Calbiochem). […] Finally, the oxidative damage of DNA was measured as a further marker of oxidative stress. […] Quality and quantity of DNA were confirmed by a NanoDrop ND-1000 spectrophotometry analysis. Absorbance of the ELISA reaction product was determined spectrophotometrically using 450 nm as the primary wave.
# HL-1 cardiomyocytes [4] = test: MTT viability assay of HL-1 cardiomyocytes; type: cell-based, mouse; conditions: agent alone; 1% α5 48 h or 1 μM DOX 16 h
# Procedure: as §1, with “1). HL-1 cell viability was assessed by MTT [3-(4,5-dimethylthiazol-2-yl)-2,5-diphenyltetrazolium bromide] reagent (Sigma, Milan, Italy). […] The purple formazan crystals were dissolved in 5% SDS/0.1 M HCl (100 μl/well), and the absorbance was recorded on a microplate reader (ELx800, BioTek Instruments, VT, USA) at a wavelength of 570 nm. Each test was repeated at least four times in quadruplicates.” for “1).”
# [5] = test system: left ventricle of DOX-treated mice; test: Signaling pathways (eNOS, mTORC1, Sestrin2, KLF15, BCKDH) in left ventricle of mice; type: in vivo, C57BL6/J mice
# Procedure: (§2) Drinking volume, food intake, and body weight were checked twice weekly. At the end of the treatment period, mice were sacrificed by cervical dislocation and hearts quickly removed and freshly used (for oxygen consumption analysis) or frozen in liquid nitrogen and stored at ˜80° C. (for mtDNA, mRNA, and protein level measurement, in addition to citrate synthase activity analysis).
# (§3) Quantitative RT-PCRs were performed as previously described [3-7] with the iQ SybrGreenl SuperMix (Bio-Rad; Segrate, Italy) on an iCycler iQ real-time PCR detection system (Bio-Rad). Briefly, RNA was isolated from left ventricle using the RNeasy Tissue Mini Kit (Qiagen) or from HL-1 cells using the RNeasy Mini Kit (Qiagen). cDNA was synthesized using the iScript cDNA Synthesis Kit (Bio-Rad Laboratories).
# Protein extracts were obtained from left ventricle with T-PER mammalian protein extraction reagent (Pierce, ThermoScientific, Rockford, USA) or from HL-1 cells in M-PER mammalian protein extraction reagent (Pierce, ThermoScientific, Rockford, USA), as indicated by the manufacturer, in the presence of 1 mM NaVO4, 10 mM NaF and a cocktail of protease inhibitors (Sigma-Aldrich, Milan, Italy). Protein content was determined by the bicinchoninic acid protein assay (BCA, Pierce, Euroclone, Milan, Italy), and 50 of the protein extract was separated by SDS-PAGE under reducing conditions. The separated proteins were then electrophoretically transferred to a nitrocellulose membrane (Bio-Rad Laboratories, Segrate, Italy) [3-8]. Proteins of interest were detected with specific antibodies: anti-COX IV (cytochrome c oxidase subunit IV, Cell Signaling Technology Cat #4844, Euroclone, Milan, Italy), anti-cyt c (cytochrome complex, Cell Signaling Technology Cat #4280), anti-PGC-1α (proliferator-activated receptor γ coactivator 1α, Cell Signaling Technology Cat #2178), anti-phospho-AKT (Ser473) (Cell Signaling Technology Cat #4060), anti-AKT (Cell Signaling Technology Cat #4685), anti-phospho-eNOS (Ser1177) (phospho-endothelial nitric oxide synthase, Cell Signaling Technology Cat #9571), anti-eNOS (Cell Signaling Technology Cat #9572), anti-phospho-S6 (Ser235/236) (phospho-S6, Cell Signaling Technology Cat #4858), anti-S6 (Cell Signaling Technology Cat #2217), anti-phospho-mTOR (Ser2481) (Cell Signaling Technology Cat #2974), anti-mTOR (Cell Signaling Technology Cat #2972), anti-phospho-BCKDH (Ser293) (Abcam Cat #200577), anti-BCKDH (Abcam Cat #138460), and anti-GAPDH (1:1000, Cell Signaling Technology Cat #2118) at 1:1000 dilution each. After the visualization of phospho-eNOS, phospho-AKT, phospho-mTOR, phospho-S6, and anti-phospho-BCKDH the filters were stripped with the Restore™ western blot stripping buffer (Euroclone, Milan, Italy) and further used for the visualization of total eNOS, total AKT, total mTOR, total S6, or total BCKDH. Immunostaining was performed using horseradish peroxidase-conjugated anti-rabbit or anti-mouse immunoglobulin for 1 h at room temperature. The protein was detected using SuperSignal substrate (Pierce, Euroclone, Milan, Italy) and quantified by densitometry with ImageJ image analysis software.
# HL-1 cardiomyocytes [6] = test: Signaling pathways (eNOS, S6, Sestrin2, Akt, KLF15, BCKDH) in HL-1 cardiomyocytes; type: cell-based, mouse; conditions: HL-1 cells
# Procedure: as §1, with “HTB-22TM)” for “HTB-22™)”, “1). […] Lafayette, CO) or siGENOME nontargeting siRNA using Dharmafect 1 transfection reagent. After 24 h transfection, cells were treated with 1% α5 for 24 h and 1 μM DOX for 16 h. Transfection efficacy was determined with siGLO-RISC-free nontargeting siRNA and siRNA uptake by fluorescence detection (absorbance/emission 557/570). Proteins were then extracted for Western blotting analysis.” for “1).”
# HL-1 cardiomyocytes [7] = test: Klf15, eNOS and Raptor siRNA knockdown in HL-1 cardiomyocytes, RT-PCR and immunoblot; type: cell-based, mouse; conditions: HL-1 cells
# Procedure: For the study of phospho-proteins, HL-1 cells were treated with 1% α5 for 2 h and 1 μM DOX (Doxo-HCl from Sigma-Aldrich D15D15) for the last 60 min. […] After 24 h transfection, cells were treated with 1% α5 for 24 h and 1 μM DOX for 16 h. Transfection efficacy was determined with siGLO-RISC-free nontargeting siRNA and siRNA uptake by fluorescence detection (absorbance/emission 557/570). Proteins were then extracted for Western blotting analysis.
# [8] = test system: left ventricle of DOX-treated mice; test: Mitochondrial biogenesis, mass, function and ROS defense genes in left ventricle of DOX-treated mice
# Procedure: as §2, §3
# For mtDNA analysis, total DNA was extracted with a QIAamp DNA Extraction Kit (Qiagen). mtDNA was amplified using primers specific for the mtDNA and normalized to the 18S gene (Table 2) [9]. The mtDNA content was determined using qRT-PCR by measuring the threshold cycle ratio (ΔCT) of the mtDNA gene vs. that of a nuclear encoded gene (18S) in left ventricle of DOX-, α5- or DOX plus α5-treated mice, in addition to control untreated mice [10,11].
# The activity was measured spectrophotometrically at 412 nm at 30° C. in left ventricle extracts [12,13].
compound,measurement,setting,value
"COc1cccc2c1C(=O)c1c(O)c3c(c(O)c1C2=O)C[C@@](O)(C(=O)CO)C[C@@H]3O[C@H]1C[C@H](N)[C@H](O)[C@H](C)O1 [DOX, doxorubicin]","mRNA levels of mitochondrial biogenesis markers (PGC-1α, NRF1, Tfam, cyt c, COX IV)",HL-1 cardiomyocytes [1],decreased
same,citrate synthase activity,HL-1 cardiomyocytes [2],reduction of citrate synthase activity
same,"8-hydroxy-2′-deoxyguanosine (8-OHdG), oxidative DNA damage",HL-1 cardiomyocytes [3],higher amount
same,expression of GPX1 and SOD1 genes,HL-1 cardiomyocytes [3],increased
same,mitochondrial H2O2 release,HL-1 cardiomyocytes [3],markedly increased
same,HL-1 cell survival (MTT),HL-1 cardiomyocytes [4],DOX-induced death of HL-1 cells
same,Klf15 mRNA levels in left ventricle,[5]; agent alone,significantly reduced
same,Ser2481 mTOR phosphorylation in heart,[5]; agent alone,reduced
same,Sestrin2 mRNA in left ventricle,[5]; agent alone,markedly increased
same,"eNOS activity, (Ser1177)phospho-eNOS to total eNOS ratio, in left ventricle",[5]; agent alone,only partially eNOS activity
same,eNOS expression in left ventricle,[5]; agent alone,decreased eNOS expression
same,(Ser235/236)phospho-S6 to total S6 ratio in left ventricle,[5]; agent alone vs saline,decreased
same,(Ser293)-BCKDH phosphorylation in left ventricle,[5]; agent alone vs saline-treated,unchanged
same,(Ser293)-BCKDH phosphorylation (p-BCKDH),"HL-1 cardiomyocytes [6]; DOX vs untreated, α5 with or without DOX",not different
same,(Ser235/236)-S6 phosphorylation,HL-1 cardiomyocytes [6]; agent alone,markedly decreased
same,(Ser 473)-Akt phosphorylation,HL-1 cardiomyocytes [6]; agent alone,markedly reduced Akt phosphorylation
same,KLF15 expression (mRNA and protein),HL-1 cardiomyocytes [6]; agent alone,reduced both at mRNA and protein levels
same,Sestrin2 expression,HL-1 cardiomyocytes [6]; agent alone,markedly increased
same,(Ser1177)-eNOS phosphorylation,"HL-1 cardiomyocytes [6]; agent alone, 1 μM DOX",markedly reduced
same,eNOS gene expression,"HL-1 cardiomyocytes [6]; agent alone, 1 μM DOX or α5 1% w/v",only slightly decreased
same,PGC-1α and COX IV protein,"HL-1 cardiomyocytes [7]; Klf15 siRNA-transfected or otherwise untreated, DOX exposure",significantly decreased both PGC-1α and COX IV protein
same,(Ser293)-BCKDH phosphorylation in Klf15 knockdown cells,"HL-1 cardiomyocytes [7]; Klf15 siRNA, DOX-treated and untreated",unable to change phosphorylation
same,"expression of ROS defense enzymes (SOD1, SOD2, catalase, GPX1) in left ventricle",[8]; agent alone,augmented the expression of ROS defense enzymes
same,mRNA levels of mitochondrial biogenesis genes in left ventricle,[8]; agent alone vs control group,reduced
same,"mitochondrial mass and function (mtDNA amount, respiratory proteins particularly COX IV, citrate synthase activity) in left ventricle",[8]; agent alone vs saline-treated,lower
same,oxygen consumption rate (OCR) of mitochondria isolated from left ventricle,"[8]; agent alone, Clark's electrode",decreased OCR
O=C(O)CC(O)(CC(=O)O)C(=O)O [citric acid],"mRNA levels of mitochondrial biogenesis markers (PGC-1α, NRF1, Tfam, cyt c, COX IV)",HL-1 cardiomyocytes [1],unable to prevent the DOX-induced reduction of mitochondrial biogenesis as well as to change the mitochondrial gene expression when supplemented alone
same,prevention of DOX-induced decrease of mitochondrial biogenesis marker mRNA,HL-1 cardiomyocytes [1],unable to prevent the DOX-induced reduction of mitochondrial biogenesis
O=C(O)CC(O)C(=O)O (centres unmarked) [malic acid],"mRNA levels of mitochondrial biogenesis markers (PGC-1α, NRF1, Tfam, cyt c, COX IV)",HL-1 cardiomyocytes [1],unable to prevent the DOX-induced reduction of mitochondrial biogenesis as well as to change the mitochondrial gene expression when supplemented alone
same,prevention of DOX-induced decrease of mitochondrial biogenesis marker mRNA,HL-1 cardiomyocytes [1],unable to prevent the DOX-induced reduction of mitochondrial biogenesis
O=C(O)CCC(=O)O [succinic acid],"mRNA levels of mitochondrial biogenesis markers (PGC-1α, NRF1, Tfam, cyt c, COX IV)",HL-1 cardiomyocytes [1],unable to prevent the DOX-induced reduction of mitochondrial biogenesis as well as to change the mitochondrial gene expression when supplemented alone
same,prevention of DOX-induced decrease of mitochondrial biogenesis marker mRNA,HL-1 cardiomyocytes [1],unable to prevent the DOX-induced reduction of mitochondrial biogenesis
